Read-outs that look alike come from different tables or passages of the source.
Key:
[1] = test system: lambsquarters; assay: Test B pre-/postemergence herbicide test; type: in vivo, Chenopodium album; details: for pest or weed control at 125 g/ha / pest or weed control at 500 g/ha: Chenopodium album, 336 h
How it was run: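 Pre: seeds sown, then sprayed. Post: 1–4-leaf plants (2–18 cm) sprayed at the same time. Paddy: flooded, treated at 2-leaf stage. Formulation: non-phytotoxic solvent with surfactant. Greenhouse 13–15 days; visual 0–100 score relative to controls.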

[2] = test system: cocklebur; assay: Test B pre-/postemergence herbicide test; type: in vivo, Xanthium strumarium; details: for pest or weed control at 125 g/ha / pest or weed control at 500 g/ha: Xanthium strumarium
How it was run: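 Herbicidal effect was judged by eye on a 0–100 scale after plants stood 13 to 15 days in the greenhouse following pre- or postemergence treatment with surfactant-containing formulations.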

[3] = test system: giant foxtail; assay: Test A pre-/postemergence herbicide test; type: in vivo, Setaria faberi; details: Setaria faberi, 240 h; for pest or weed control at 500 g/ha: 500 g ai/ha; for pest or weed control at 2000 g/ha: 2000 g ai/ha
How it was run: (§1)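 Both application timings were run together: directed soil spray over freshly planted seeds in sandy loam, and runoff spray onto 2–10 cm seedlings. Evaluation after ~10 days in greenhouse used a 0–100 visual scale versus untreated controls.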

[4] = test system: large crabgrass; assay: Test A pre-/postemergence herbicide test; type: in vivo, Digitaria sanguinalis; details: Digitaria sanguinalis, 240 h; for pest or weed control at 500 g/ha: 500 g ai/ha; for pest or weed control at 2000 g/ha: 2000 g ai/ha
How it was run: as §1

[5] = post-emergence, postemergence, 125 g ai/ha, visual rating, scale 0 (no effect) to 100 (complete control), read-out: Lambsquarters plant response rating
[6] = post-emergence, postemergence, 500 g ai/ha, visual rating, scale 0 (no effect) to 100 (complete control), read-out: Lambsquarters plant response rating
[7] = pre-emergence, 125 g ai/ha, 0 = no effect, 100 = complete control, read-out: Lambsquarters plant response rating (0 to 100 scale)
[8] = pre-emergence, 500 g ai/ha, visual rating, 0 = no effect, 100 = complete control, read-out: Plant response rating, Lambsquarters
[9] = post-emergence, postemergence, 125 g ai/ha, visual rating, scale 0 (no effect) to 100 (complete control), read-out: Cocklebur plant response rating
[10] = post-emergence, postemergence, 500 g ai/ha, visual rating, scale 0 (no effect) to 100 (complete control), read-out: Cocklebur plant response rating
[11] = pre-emergence, 125 g ai/ha, 0 = no effect, 100 = complete control, read-out: Cocklebur plant response rating (0 to 100 scale)
[12] = pre-emergence, 500 g ai/ha, visual rating, 0 = no effect, 100 = complete control, read-out: Plant response rating, Cocklebur
[13] = 125 g ai/ha, 0 is no effect, 100 is complete control, preemergence
[14] = post-emergence, postemergence, 500 g ai/ha, scale 0 to 100, 0 is no effect, 100 is complete control, read-out: Lambsquarters plant response rating
[15] = post-emergence, Postemergence, 0 to 100 scale, 0 no effect, 100 complete control, read-out: Foxtail, Giant plant response rating
[16] = post-emergence, Postemergence, 0 to 100 scale, 0 no effect, 100 complete control, read-out: Plant response rating, Foxtail, Giant
[17] = pre-emergence, Preemergence, visual rating, 0 to 100 scale (0 no effect, 100 complete control), read-out: Foxtail, Giant plant response rating
[18] = post-emergence, Postemergence, 0 to 100 scale, 0 no effect, 100 complete control, read-out: Crabgrass, Large plant response rating
[19] = post-emergence, Postemergence, 0 to 100 scale, 0 no effect, 100 complete control, read-out: Plant response rating, Crabgrass, Large
[20] = pre-emergence, Preemergence, visual rating, 0 to 100 scale (0 no effect, 100 complete control), read-out: Crabgrass, Large plant response rating
[21] = 125 g ai/ha, 0 = no effect, 100 = complete control, preemergence
[22] = postemergence, 125 g ai/ha, visual rating, scale 0 (no effect) to 100 (complete control)
[23] = postemergence, 500 g ai/ha, scale 0 to 100, 0 is no effect, 100 is complete control
[24] = 500 g ai/ha, visual rating, 0 = no effect, 100 = complete control, preemergence
[25] = 125 g ai/ha, visual rating, scale 0 (no effect) to 100 (complete control), postemergence
[26] = Postemergence, 500 g ai/ha, scale 0 (no effect) to 100 (complete control)
[27] = postemergence, 125 g ai/ha, scale 0 to 100

`CCn1nc(C(C)(C)C)cc1C(=O)Nc1ccc(F)c(C(=O)N(C)C)c1` [Compound 236, N-[3-[(dimethylamino)carbonyl]-4-fluorophenyl]-3-(1,1-dimethylethyl)-1-ethyl-1H-pyrazole-5-carboxamide] was tested, and the pest or weed control at 125 g/ha [1, 5] was 60%, the pest or weed control at 500 g/ha [1, 6] was 70% and the pest or weed control at 125 g/ha [1, 7] was 50%. It also gave a pest or weed control at 500 g/ha [1, 8] of 100%, a pest or weed control at 125 g/ha [2, 9] of 20% and a pest or weed control at 500 g/ha [2, 10] of 40%. It also gave a pest or weed control at 125 g/ha [2, 11] of 0% and a pest or weed control at 500 g/ha [2, 12] of 20%.
With `CCc1nn(C(C)C)nc1C(=O)Nc1cccc(C(=O)N(C)C)c1` [Compound 358, N-[3-[(dimethylamino)carbonyl)phenyl]-5-ethyl-2-(1-methylethyl)-2H-1,2,3-triazole-4-carboxamide] the “Plant response rating (0 to 100 scale), Lambsquarters” value [1, 13] was 100, the pest or weed control at 125 g/ha ([1]; post-emergence, 125 g ai/ha, visual rating, scale 0 (no effect) to 100 (complete control), read-out: Lambsquarters plant response rating) was 30% and the pest or weed control at 500 g/ha [1, 14] was 50%. The pest or weed control at 500 g/ha [1, 8] was 100%, the “Plant response rating (0 to 100 scale), Cocklebur” value [2, 13] was 40 and the pest or weed control at 125 g/ha ([2]; post-emergence, 125 g ai/ha, visual rating, scale 0 (no effect) to 100 (complete control), read-out: Cocklebur plant response rating) was 0%. For the same compound, the pest or weed control at 500 g/ha ([2]; post-emergence, postemergence, 500 g ai/ha, scale 0 to 100, 0 is no effect, 100 is complete control, read-out: Cocklebur plant response rating) was 20% and the pest or weed control at 500 g/ha [2, 12] was 90%.
Compound `CCn1nc(C(C)(C)C)cc1C(=O)Nc1cccc(C(=O)OC)n1` [Compound 143, methyl 6-[[[3-(1,1-dimethylethyl)-1-ethyl-1H-pyrazol-5-yl]carbonyl]amino]-2-pyridinecarboxylate] has a pest or weed control at 125 g/ha [1, 5] of 0%, a pest or weed control at 500 g/ha [1, 6] of 20% and a pest or weed control at 500 g/ha ([1]; pre-emergence, 500 g ai/ha, visual rating 0-100, 0 no effect, 100 complete control, read-out: Plant response rating, Lambsquarters) of 0%. The pest or weed control at 125 g/ha ([1]; pre-emergence, preemergence, 125 g ai/ha, 0 to 100 scale, 0 is no effect, 100 is complete control, read-out: Plant response rating, Lambsquarters) was 0%, the pest or weed control at 500 g/ha [3, 15] was 10% and the pest or weed control at 2000 g/ha [3, 16] was 15%. The pest or weed control at 500 g/ha [3, 17] was 0%, the pest or weed control at 2000 g/ha [3, 17] was 0% and the pest or weed control at 125 g/ha [2, 9] was 0%. It also gave a pest or weed control at 500 g/ha [2, 10] of 0%, a pest or weed control at 500 g/ha ([2]; pre-emergence, 500 g ai/ha, visual rating 0-100, 0 no effect, 100 complete control, read-out: Plant response rating, Cocklebur) of 0% and a pest or weed control at 125 g/ha ([2]; pre-emergence, preemergence, 125 g ai/ha, 0 to 100 scale, 0 is no effect, 100 is complete control, read-out: Plant response rating, Cocklebur) of 0%. It also gave a pest or weed control at 500 g/ha [4, 18] of 20%, a pest or weed control at 2000 g/ha [4, 19] of 30% and a pest or weed control at 500 g/ha [4, 20] of 0%. It also gave a pest or weed control at 2000 g/ha [4, 20] of 15%.
`CCn1nc(C(C)(C)C)cc1C(=O)Nc1cc(C(=O)OC(C)C)c(F)cc1F` [Compound 248] was tested, and the “Lambsquarters plant response rating (0 to 100 scale)” value [1, 21] was 0, the “Lambsquarters plant response rating” value [1, 22] was 60 and the “Lambsquarters plant response rating” value [1, 23] was 70. For the same compound, the “Cocklebur plant response rating (0 to 100 scale)” value [2, 21] was 0, the “Plant response rating, Cocklebur” value [2, 24] was 0 and the “Cocklebur plant response rating” value [2, 22] was 30. The “Cocklebur plant response rating” value ([2]; postemergence, 500 g ai/ha, visual rating, scale 0 (no effect) to 100 (complete control)) was 50.
For `CCOC(=O)c1ccc(F)c(NC(=O)C2CC(C(C)(C)C)=NN2CC)c1` (stereo not shown) [Compound 267, ethyl 3-[[[3-(1,1-dimethylethyl)-1-ethyl-4,5-dihydro-1H-pyrazol-5-yl]carbonyl]amino]-4-fluorobenzoate], the pest or weed control at 125 g/ha [1, 5] was 30%, the pest or weed control at 500 g/ha [1, 14] was 50% and the pest or weed control at 125 g/ha [1, 7] was 0%. It also gave a pest or weed control at 500 g/ha [3, 15] of 30%, a pest or weed control at 2000 g/ha [3, 16] of 55% and a pest or weed control at 2000 g/ha [3, 17] of 85%. For the same compound, the pest or weed control at 500 g/ha ([3]; pre-emergence, preemergence, visual injury, 0 to 100 scale (0 no effect, 100 complete control), read-out: Foxtail, Giant plant response rating) was 75%, the pest or weed control at 125 g/ha [2, 9] was 30% and the pest or weed control at 500 g/ha [2, 10] was 90%. The pest or weed control at 125 g/ha [2, 11] was 0%, the pest or weed control at 500 g/ha [2, 12] was 0% and the pest or weed control at 500 g/ha [4, 18] was 45%. For the same compound, the pest or weed control at 2000 g/ha [4, 19] was 75%, the pest or weed control at 2000 g/ha [4, 20] was 90% and the pest or weed control at 500 g/ha ([4]; pre-emergence, preemergence, visual injury, 0 to 100 scale (0 no effect, 100 complete control), read-out: Crabgrass, Large plant response rating) was 15%.
`CCOC(=O)c1ccc(F)c(NC(=O)c2cc(C3(C)CC3)nn2CC)c1` [Compound 296] was tested, and the “Lambsquarters plant response rating (0 to 100 scale)” value [1, 21] was 90, the “Lambsquarters plant response rating” value [1, 25] was 50 and the “Plant response rating, Lambsquarters” value [1, 24] was 100. For the same compound, the “Lambsquarters plant response rating” value [1, 23] was 70, the “Cocklebur plant response rating (0 to 100 scale)” value [2, 21] was 0 and the “Cocklebur plant response rating” value [2, 25] was 50. For the same compound, the “Plant response rating, Cocklebur” value [2, 24] was 0 and the “Cocklebur plant response rating” value [2, 23] was 60.
`C=CCOc1cccc(NC(=O)c2cc(C(C)(C)C)nn2CC)c1` [Compound 412] was tested, and the “Plant response rating (0 to 100 scale), Lambsquarters” value [1, 13] was 0, the “Lambsquarters plant response rating” value [1, 26] was 100 and the “Lambsquarters plant response rating” value [1, 27] was 60. The “Plant response rating (0 to 100 scale), Cocklebur” value [2, 13] was 0, the “Cocklebur plant response rating” value [2, 26] was 30 and the “Cocklebur plant response rating” value [2, 27] was 0.
In the case of `CCNC(=O)c1cc(NC(=O)c2cn(C(C)(C)C)nc2CC)ccc1F` [Compound 241, 1-(1,1-dimethylethyl)-3-ethyl-N-[3-[(ethylamino)carbonyl]-4-fluorophenyl]-1H-pyrazole-4-carboxamide], the pest or weed control at 125 g/ha [1, 5] is reported as 30%, the pest or weed control at 500 g/ha [1, 14] is reported as 50% and the pest or weed control at 125 g/ha [1, 7] is reported as 80%. The pest or weed control at 500 g/ha [1, 8] was 100%, the pest or weed control at 125 g/ha [2, 9] was 20% and the pest or weed control at 500 g/ha [2, 10] was 30%. It also gave a pest or weed control at 125 g/ha [2, 11] of 0% and a pest or weed control at 500 g/ha [2, 12] of 0%.
For `C#CCOc1cccc(NC(=O)c2cc(C(C)(C)C)nn2CC)c1` [Compound 411], the “Plant response rating (0 to 100 scale), Lambsquarters” value [1, 13] was 50, the “Lambsquarters plant response rating” value [1, 26] was 90 and the “Lambsquarters plant response rating” value [1, 27] was 20. For the same compound, the “Plant response rating (0 to 100 scale), Cocklebur” value [2, 13] was 0, the “Cocklebur plant response rating” value [2, 26] was 60 and the “Cocklebur plant response rating” value [2, 27] was 0.
For `C#CCNC(=O)c1cccc(NC(=O)c2nn(C(C)(C)C)nc2CC)c1` [Compound 380], the “Plant response rating (0 to 100 scale), Lambsquarters” value [1, 13] was 90, the “Lambsquarters plant response rating” value [1, 25] was 60 and the “Lambsquarters plant response rating” value [1, 26] was 70. For the same compound, the “Plant response rating (0 to 100 scale), Cocklebur” value [2, 13] was 0, the “Cocklebur plant response rating” value [2, 25] was 20 and the “Cocklebur plant response rating” value [2, 23] was 30.

Reference: patent US20060069132A1, “Azolecarboxamide herbicides” (priority 2004, published 2006)
